Results from patent publication US7795305B2, “CDDO-compounds and combination therapies thereof” (Board of Regents, The University of Texas System, priority 2000, dated 2010).

Columns and labels:
Bcl-2 mRNA in NB4 cells = assay: Bcl-2 mRNA by quantitative TaqMan PCR; type: cell-based, human; conditions: 72 hrs
Description: (§1) The effect of CDDO on the Bcl-2 mRNA expression was analyzed utilizing quantitative TaqMan PCR. In HL-60 cells, Bcl-2 mRNA decreased at 24 hrs and decreased further (>than 10-fold) at 72 hours; in NB4 cells, a small decrease of Bcl-2 mRNA (2-fold) was observed only at 72 hrs (FIG. 9).

[1] = system: Bcl-2 mRNA in HL-60 cells; assay: Bcl-2 mRNA by quantitative TaqMan PCR; type: cell-based, human; conditions: 72 hours
Description: as §1

U937 cells [2] = assay: cells; type: cell-based, human
Description: Suspension culture of leukemic cells.
CDDO. The effect of CDDO on the survival of HL-60 and U937 leukemia cell lines is depicted in FIG. 1. A time- and dose-dependent decrease of HL-60 cells: at 48 hours, 10^−8 M, at 72 and 96 hours, 10^−9 M of CDDO reduced cell numbers by 50%. Viability of U937 cells was inhibited at 107 to 1018 at 48 hours. DNA fragmentation was measured to confirm that the cell death induced by CDDO was due to apoptosis on a sub G1 cell population by DNA/RNA flow cytometry (FIG. 2). The percentage of proliferating cells were analyzed by FCM.

435 breast cancer cells = assay: Breast cancer growth in nude mice; type: in vivo; conditions: 20 and 40 mg/kg i.v. twice a week
Description: CDDO was given at 20 and 40 mg/kg i.v. twice a week 10 days after nude mice were injected s.c. with 2×10^6 estrogen-receptor negative, PPARγ positive 435 breast cancer cells.

U937 cells [3] = assay: Mitochondrial membrane potential; type: cell-based, human
Description: (§2) Cytofluorometric analysis of the Δψm. To evaluate the Δψm, cells were incubated with the cationic lipophilic dye […] (CMXRos; 150 nM; Molecular Probes, Inc., Eugene, Oreg.). CMXRos is incorporated into mitochondria driven by the […] and reacts with thiol residues to form covalent thiol ester bonds. CMXRos fluorescence was recorded by flow cytometry in the FL3 channel. Background values of the apoptosis of control cells cultured without the CDDO-Me or in DMSO-solvent control (<10% CMXRos-low) were subtracted from the values obtained under the experimental conditions.
An early mitochondrial disruption has been observed in a number of different models of apoptosis. Changes in the cellular content of the cationic lipophilic fluorochrome CMXRos were determined by FACS analysis to measure loss of the mitochondrial membrane potential (Δψ) (Macho et al., 1996). […] Similarly, exposure of HL-60 to CDDO-Me (1 μM) for 2 and 4 hrs increased the number of cells with low JC-1 (57 and 60%) or CMXRos staining (46 and 57%), both assays measuring the decrease in Δψ. CDDO-Me-induced changes in the mitochondrial membrane potential of the cells preceded caspase activation and changes in the composition of the plasma membrane. […]

HL-60 cells = assay: Mitochondrial membrane potential (JC-1, CMXRos); type: cell-based, human; conditions: for cells with low CMXRos staining / cells with low JC-1: 1 μM
Description: as §2
In a series of experiments, cells were pretreated for 1 hour with 50 μM CyA or 50 μM BA prior to the addition of CDDO-Me. These agents prevent a reduction in Δψm induced by various agents that open mitochondrial permeability transition pores.
An early mitochondrial disruption has been observed in a number of different models of apoptosis. Changes in the cellular content of the cationic lipophilic fluorochrome CMXRos were determined by FACS analysis to measure loss of the mitochondrial membrane potential (Δψ) (Macho et al., 1996). […] Similarly, exposure of HL-60 to CDDO-Me (1 μM) for 2 and 4 hrs increased the number of cells with low JC-1 (57 and 60%) or CMXRos staining (46 and 57%), both assays measuring the decrease in Δψ. CDDO-Me-induced changes in the mitochondrial membrane potential of the cells preceded caspase activation and changes in the composition of the plasma membrane. In order to validate the role of the dissipation of Δψ in CDDO-treated cells the pharmacological inhibitors of permeability transition cyclosporin A (CyA) (Nicolli et al., 1996) (10 μM, Sandoz) and bongkrekic acid (BA) (Marchetti et al., 1996) (Calbiochem, Calif.) were used. […] The same effect was observed using BA (52% in CDDO-Me treated HL-60 cells, 23% when cells were pre-treated with BA).

[4] = system: ERK immunoprecipitated from K562 cells; assay: In vitro ERK (MAPK kinase) assay, MBP phosphorylation; type: biochemical; conditions: 0.1, 1, and 10 μM
Description: In vitro ERK assay. The effect of CDDO or CDDO-Me was determined using an in vitro MAPK kinase assay kit from Upstate Biotechnology (Lake Placid, N.Y.) and ERK1/2 antibody from Santa Cruz Biotechnology (Santa Cruz, Calif.). For each sample, ERK 1/2 was immunoprecipitated from 2×10^7 K562 or 1×10^7 HL60 cells using a specific anti-ERK 1/2 antibody and Protein A agarose (Life Technologies, Rockville, Md.). The ERK-containing agarose pellet was resuspended in Assay Buffer containing an inhibitor cocktail (PKC inhibitor peptide, PKA inhibitor peptide, and Compound R24571) to block possible contaminating non-ERK kinases. Where appropriate, varying concentrations (0.1, 1, and 10 μM) of CDDO or CDDO-Me was added. Dephosphorylated myelin basic protein (MBP; 25 μg) was used as substrate. Phosphorylation of MBP was observed by using an anti-phospho-MBP antibody. […] The amount of ERK2 immunoprecipitated from each sample was determined by using anti-ERK2 antibody.
To determine specific effects of CDDO-Me on ERK activity the inventors used an in vitro MAPK kinase assay kit. ERK was immunoprecipitated from K562 cells since these cells contain the Bcr-Abl kinase and activated ERK present in these cells under basal conditions.

CML-blast crisis samples = assay: Apoptosis and differentiation in CML-blast crisis samples in vitro; type: cell-based, human
Description: Subjects. Samples of bone marrow or peripheral blood were obtained for in vitro studies from patients with newly diagnosed or recurrent AML with high (>70%) blast count and from patients with myeloid transformation of chronic myeloid leukemia (CML). Informed consent was obtained following institutional guidelines. Mononuclear cells were separated by Ficoll-Hypaque (Sigma Chemical Co) density-gradient centrifugation.
CDDO-Me. In primary AML, CDDO-Me induced apoptotic cell death in a dose-dependent fashion as determined by DNA flow cytometry (subG1): at 1 μM CDDO-Me, apoptosis was induced in 5 of 6 AML samples in vitro, and 5 μM induced apoptosis in 6 of 6 samples. More than 90% apoptotic cells were detected in 4/6 samples following exposure to 5 μM of CDDO-Me (FIG. 21A). At lower concentrations, CDDO-Me induced a dose-dependent increase in the percentage of the apoptotic cells in 4/4 samples tested (FIG. 21B). The paired mean difference between the CDDO-Me 0.1 μM and DMSO control is 26.9%±10.8% (CDDO-Me-DMSO, mean±SEM); and the paired mean difference between the CDDO-Me 0.5 μM and DMSO is 43.2%±5.2%. […] Effects of CDDO-Me were also tested on clonogenic AML cells. […] In contrast, 79±5.6% and 63.4±1.1% CFU-GM generated from normal CD34* cells were detected after 0.1 and 0.5 μM of CDDO-Me treatment (n=3).

| Structure (SMILES) | decrease of Bcl-2 mRNA (Bcl-2 mRNA in NB4 cells) | decrease of Bcl-2 mRNA [1] | concentration at which viability of U937 cells was inhibited (U937 cells [2]; 48 hours) | viability at 1 µM (U937 cells [2]; Homo sapiens, U-937, 48 h, read-out: cells remaining viable) | viability at 2 µM (U937 cells [2]; Homo sapiens, U-937, read-out: viable cells) | growth of breast cancer cells in vivo (435 breast cancer cells) | cells with decreased Δψ (U937 cells [3]; CDDO-Me alone) | cells with decreased Δψ (U937 cells [3]; after DEVD pretreatment) | cells with low CMXRos staining (HL-60 cells; 2 hrs) | cells with low JC-1 (HL-60 cells; 2 hrs) | cells with low CMXRos staining (HL-60 cells; 4 hrs) | cells with low JC-1 (HL-60 cells; 4 hrs) | cells with Δψ loss (HL-60 cells; CDDO-Me alone) | cells with Δψ loss (HL-60 cells; cells pre-treated with bongkrekic acid (BA)) | MBP phosphorylation by ERK [4] | CML-blast crisis samples in which apoptosis was induced (CML-blast crisis samples; 1 μM) | CML-blast crisis samples in which apoptosis was induced (CML-blast crisis samples; 5 μM) |
| --- | --- | --- | --- | --- | --- | --- | --- | --- | --- | --- | --- | --- | --- | --- | --- | --- | --- |
| CC1(C)CCC2(C(=O)O)CCC3(C)C(C(=O)C=C4C5(C)C=C(C#N)C(=O)C(C)(C)C5CCC43C)C2C1 (centres unmarked) [CDDO, 2-cyano-3,12-dioxoolen-1,9-dien-28-oic acid] | 2 fold | > 10 fold | 107 to 1018 | 44.7% | 30.2% | inhibits the growth of breast cancer cells in vivo | – | – | – | – | – | – | – | – | – | – | – |
| COC(=O)[C@]12CCC(C)(C)C[C@H]1[C@H]1C(=O)C=C3[C@@]4(C)C=C(C#N)C(=O)C(C)(C)[C@@H]4CC[C@@]3(C)[C@]1(C)CC2 [CDDO-Me] | – | – | – | – | – | – | 40% | 4% | 46% | 57% | 57% | 60% | 52% | 23% | inhibited MBP phosphorylation in a dose-dependent manner | 3 of 4 | 4 of 4 |
